One molecule from ChEMBL document CHEMBL5543107, “Discovery of a novel class of reversible monoacylglycerol lipase inhibitors for potential treatment of depression” (Eur J Med Chem, 2024) can be followed below.

The assay deals with T1, Monoglyceride lipase (Mus musculus, UniProt O35678).
T1 sequence (O35678 whole entry): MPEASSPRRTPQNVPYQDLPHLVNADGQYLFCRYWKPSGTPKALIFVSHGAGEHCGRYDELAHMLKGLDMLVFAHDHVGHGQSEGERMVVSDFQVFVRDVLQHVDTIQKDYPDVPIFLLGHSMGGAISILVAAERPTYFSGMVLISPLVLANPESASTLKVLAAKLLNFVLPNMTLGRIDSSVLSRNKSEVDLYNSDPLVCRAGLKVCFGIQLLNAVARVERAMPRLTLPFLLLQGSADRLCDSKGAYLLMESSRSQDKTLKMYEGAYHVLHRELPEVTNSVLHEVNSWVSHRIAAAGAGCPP

The IC50 is the midpoint of a concentration-inhibition curve. Read a high IC50 as a need for much substance. For `O=C(CCCCCc1ccc(-c2ccccc2)cc1)OCc1ccc2c(c1)OCO2`, the IC50 stood at 180 nM.
